{"source": "paper PMC3830699", "about": "(2013)", "tested_on": "144 ydaO (RNA, riboswitch) GGGAAAACAAAUCGCUUAAUCUGAAAUCAGAGCGGGGGACCCAAUAGAACGGCUUUUUGCCGUUGGGGUGAAUCCUUUUUAGGUAGGGCUAACUCUCAUAUGCCCGAAUCCGUCAGCUAACCUCGUAAGCGUUCGUGAGAGGAGAU", "assay": "in-line probing", "conditions": "low millimolar; tested to 3.16 mM; taken as the shorter construct of b32"}
{"smiles": "Nc1ncnc2c1ncn2[C@@H]1O[C@H](COP(=O)(O)OP(=O)(O)OP(=O)(O)O)[C@@H](O)[C@H]1O", "values": [{"measurement": "binding", "result": "weak"}]}
